The record followed here is BindingDB's records for doi:10.7270/Q2DR2SWV (Vanderbilt Screening Center For Gpcrs, Ion Channels and …, 2010).

For the assay, the target named is Metabotropic glutamate receptor 4 [Q124R] (Rattus norvegicus, UniProt P31423, Q124R). The assay is described as follows: PubChem AID 2185.
Metabotropic glutamate receptor 4 [Q124R], sequence (P31423 33-912 Q124R limits assumed): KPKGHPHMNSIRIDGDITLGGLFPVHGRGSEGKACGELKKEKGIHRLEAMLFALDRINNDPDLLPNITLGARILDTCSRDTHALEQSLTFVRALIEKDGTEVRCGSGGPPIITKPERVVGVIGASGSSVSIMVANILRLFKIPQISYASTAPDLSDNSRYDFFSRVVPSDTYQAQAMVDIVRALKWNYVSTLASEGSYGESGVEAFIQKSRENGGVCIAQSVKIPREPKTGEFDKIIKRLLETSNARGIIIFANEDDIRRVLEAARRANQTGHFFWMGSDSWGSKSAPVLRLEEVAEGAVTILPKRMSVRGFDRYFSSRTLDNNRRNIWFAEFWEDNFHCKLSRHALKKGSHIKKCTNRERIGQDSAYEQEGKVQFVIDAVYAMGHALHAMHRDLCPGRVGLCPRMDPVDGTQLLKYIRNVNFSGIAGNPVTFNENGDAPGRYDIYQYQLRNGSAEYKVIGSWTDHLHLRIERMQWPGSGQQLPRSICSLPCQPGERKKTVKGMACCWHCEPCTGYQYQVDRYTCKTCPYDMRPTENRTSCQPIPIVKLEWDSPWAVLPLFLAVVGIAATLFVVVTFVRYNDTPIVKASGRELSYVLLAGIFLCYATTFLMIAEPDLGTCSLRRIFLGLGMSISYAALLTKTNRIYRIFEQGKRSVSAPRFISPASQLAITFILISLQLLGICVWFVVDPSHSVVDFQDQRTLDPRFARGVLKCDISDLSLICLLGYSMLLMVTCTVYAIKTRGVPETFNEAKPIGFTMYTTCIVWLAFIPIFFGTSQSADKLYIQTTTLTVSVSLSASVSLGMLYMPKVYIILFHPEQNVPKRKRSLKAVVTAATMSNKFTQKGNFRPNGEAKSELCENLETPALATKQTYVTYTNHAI
By EC50 is commonly meant the concentration that produces a half-maximal response. Read a high EC50 as a less potent agent. The compound `COc1cc(NC(=O)c2ccccn2)ccc1F` had a concentration giving a half-maximal response (EC50) of 0.374 µM.
`O=C(Nc1ccc(-n2c(O)cc(-c3ccccc3)c2O)c(Cl)c1)c1ccccn1` [N-[3-chloro-4-(2,5-dioxo-3-phenyl-1-pyrrolidinyl)phenyl]-2-pyridinecarboxamide] came in with an EC50 of 0.49 µM.
On to `O=C(Nc1ccc(-n2c(O)c3c(c2O)CCCC3)c(Cl)c1)c1ccccn1` [VU0366515-1], for which the EC50 is 0.65 µM.
`COc1ccc(NC(=O)c2ccccn2)cc1OC` came in with a concentration for a half-maximal effect (EC50) of 2.35 µM.
For `O=C(Nc1ccc(Cl)c(C(F)(F)F)c1)c1ccccn1`, the EC50 stood at 1.71 µM.
In the case of `COc1cc(NC(=O)c2ccccn2)ccc1C`, the response was half-maximal at 0.208 µM (EC50).
For `O=C(Nc1ccc(-n2c(O)c3c(c2O)[C@H]2CC[C@@H]3O2)c(Cl)c1)c1ccccn1` [VU0405235-1], the 50% effective concentration (EC50) is 2.29 µM.
For `O=C(Nc1ccc(-n2c(O)ccc2O)c(Cl)c1)c1ccccn1` [N-[3-chloro-4-(2,5-dioxopyrrolidin-1-yl)phenyl]pyridine-2-carboxamide], the midpoint of the response, the EC50, lay at 6.89 µM.
On to `O=C(Nc1ccc(F)c(C(F)(F)F)c1)c1ccccn1`, for which the EC50 amounted to 0.999 µM.
Under `COc1ccc(NC(=O)c2ccccn2)cc1Cl` stands 0.738 µM; under `CC1(C)c2c1c(O)n(-c1ccc(NC(=O)c3ccccn3)cc1Cl)c2O` [N-[3-chloranyl-4-[(1S,5R)-6,6-dimethyl-2,4-bis(oxidanylidene)-3-azabicyclo[3.1.0]hexan-3-yl]phenyl]pyridine-2-carboxamide], 0.69 µM.
